# Test results taken from US8937182B2, “Synthesis for thiazolidinedione compounds” (Metabolic Solutions Development Company, LLC, priority 2010, dated 2015).
# Tested on: KKA^Y mice
# Assay: Glucose, insulin and triglyceride in diabetic KKAy mice treated with exemplary compounds
# Assay type: in vivo
# Details: 93 mg/kg oral for 4 days, blood approx. 18 h after last dose, fasted, Vehicle A 24 (5)
# Protocol: The insulin sensitizing and antidiabetic pharmacology are measured in the KKA^Y mice as previously reported [Hofmann, C., Lornez, K., and Colca, J. R. (1991). Glucose transport deficiency corrected by treatment with the oral anti-hyperglycemic agent Pioglitazone. Endocrinology, 129:1915-1925.] Compounds are formulated in 1% sodium carboxy methylcellulose, and 0.01% tween 20 and dosed daily by oral gavage.
# Glucose, Insulin, and Triglyceride in Diabetic KKAy Mice Treated with Exemplary Compounds of the Present Invention.
# The insulin sensitizing and antidiabetic pharmacology are measured in the KKA^Y mice as previously reported [Hofmann, C., Lornez, K., and Colca, J. R. (1991). Glucose transport deficiency corrected by treatment with the oral anti-hyperglycemic agent Pioglitazone. Endocrinology, 129:1915-1925.]. Compounds are formulated in 1% sodium carboxy methylcellulose, and 0.01% tween 20 and dosed daily by oral gavage.
# Compounds were formulated by suspension and orally dosed to KKA^Y mice at 93 mg/kg for 4 days. The compounds were first dissolved in DMSO and then placed into aqueous suspension containing 7-10% DMSO, 1% sodium methylcarboxycellulose, and 0.01% Tween 20. On the fifth day, the mice were fasted and blood samples were obtained approximately 18 hours after the last dose. The parameters were measured by standard assay methods. Data are mean and SEM N=6-12 mice.
row,Structure (SMILES),Insulin (Mean/SD)
1,"COc1ccc(C(=O)COc2ccc(CC3SC(=O)NC3=O)cc2)cc1 (stereo not drawn) [Compound 9, 5-{4-[2-(4-methoxyphenyl)-2-oxoethoxy]benzyl}-1,3-thiazolidine-2,4-dione]",0.76
2,"O=C1NC(=O)C(Cc2ccc(OCC(=O)c3ccc(F)cc3)cc2)S1 (stereo not drawn) [Compound 2, 5-{4-[2-(4-fluorophenyl)-2-oxoethoxy]benzyl}-1,3-thiazolidine-2,4-dione]",0.10
3,"O=C1NC(=O)C(Cc2ccc(OCC(=O)c3cccc(F)c3)cc2)S1 (stereo not drawn) [Compound 4, 5-{4-[2-(3-fluorophenyl)-2-oxoethoxy]benzyl}-1,3-thiazolidine-2,4-dione]",0.24
4,"O=C1NC(=O)C(Cc2ccc(OCC(=O)c3cccc(Cl)c3)cc2)S1 (stereo not drawn) [Compound 7, 5-{4-[2-(3-chlorophenyl)-2-oxoethoxy]benzyl}-1,3-thiazolidine-2,4-dione]",0.59
5,"O=C1NC(=O)C(Cc2ccc(OCC(=O)c3ccccc3Cl)cc2)S1 (stereo not drawn) [Compound 8, 5-{4-[2-(2-chlorophenyl)-2-oxoethoxy]benzyl}-1,3-thiazolidine-2,4-dione]",0.47
6,"O=C1NC(=O)C(Cc2ccc(OCC(=O)c3ccccc3F)cc2)S1 (stereo not drawn) [Compound 3, 5-{4-[2-(2-fluorophenyl)-2-oxoethoxy]benzyl}-1,3-thiazolidine-2,4-dione]",0.20
